Reference: patent publication US20220389008A1, “4-QUINOLINONE ANTIBACTERIAL COMPOUNDS” (Janssen Sciences Ireland Unlimited Company, priority 2019, published 2022)
Like-named read-outs stand apart in the source and are kept apart here.

Key:
[1] = tested on: Mycobacterium tuberculosis strain H37Rv ΔctaE-ΔqcrCAB; assay: microbe, parasite or virus in culture; assay type: cell-based; details: 240 h
[2] = tested on: Mycobacterium tuberculosis (strain H37Ra), cyt bd; details: Mtb H37Ra; for (i) % OCR after cyt bd inhibitor: test compound 10 μM added after Compound X 0.9 μM; for (ii) % OCR after cccp: test compound 10 μM after Compound X 0.9 μM, then CCCP 1 μM
[3] = tested on: Mitochondrial toxicity (Glu/Gal); assay: Mitochondrial toxicity (Glu/Gal) assay; assay type: cell-based; set-up: key to Score: “negative” means that in the test, it was found to have low mitotoxicity (and hence no mitotoxicity alerts); “positive” means that there were some mitotoxicity alerts; “inconclusive” means that no accurate conclusion could be drawn; details: for Score: mitotoxicity score; for Δ IC50,glu/IC50,gal: ratio glu/gal
Text: The compounds of the invention/examples may have advantages associated with in vitro potency, kill kinetics (i.e. bactericidal effect) in vitro, PK properties, food effect, safety/toxicity (including liver toxicity, coagulation, 5-LO oxygenase), metabolic stability, Ames II negativity, MNT negativity, aqueous based solubility (and ability to formulate) and/or cardiovascular effect e.g. on animals (e.g. anesthetized guinea pig). The data below that was generated/calculated may be obtained using standard methods/assays, for instance that are available in the literature or which may be performed by a supplier (e.g. Microsomal Stability Assay—Cyprotex, Mitochondrial toxicity (Glu/Gal) assay—Cyprotex, as well as literature CYP cocktail inhibition assays).

[4] = galactose medium, read-out: IC50, gal
[5] = glucose medium, read-out: IC50, glu

Compound	IC50 [1] [µM]	(i) % OCR after cyt bd inhibitor [2]	(ii) % OCR after cccp [2]	IC50 [3, 4] [µM]	IC50 [3, 5] [µM]	Score [3]	Δ IC50,glu/IC50,gal [3]
COc1cccc(-c2ccc3nc(-c4[nH]c5ccccc5c(=O)c4C)nn3c2)c1 [Compound 89]	0.574	55,82%	62,29%	–	–	–	–
Cc1csc(-c2ccc3nc(-c4[nH]c5ccccc5c(=O)c4C)nn3c2)n1 [Compound 71]	> 10	95.71%	167.55%	–	–	–	–
Cc1ccc(-c2ccc3nc(-c4[nH]c5ccccc5c(=O)c4C)nn3c2)o1 [Compound 91]	1.74	49,11%	56,23%	–	–	–	–
Cc1c(-c2nc3ccc(-c4ccc(OC(F)(F)F)c(F)c4)cn3n2)[nH]c2ccccc2c1=O [Compound 1]	1.63	26.9%	35.1%	19.8	100	positive	[x]5.06
Cc1c(-c2cn3ccc(-c4ccc(OC(F)(F)F)cc4)cc3n2)[nH]c2ccccc2c1=O [Compound 42]	30.7	80.1%	137.9%	200	200	negative	–
Cc1c(-c2cn3cc(-c4cccc(OC(F)(F)F)c4)ccc3n2)[nH]c2ccccc2c1=O [Compound 23]	> 100	97.51%	110.11%	200	200	negative	–
Cc1c(-c2nc3ccc(N4CCC(OC(F)(F)F)CC4)cn3n2)[nH]c2ccccc2c1=O [Compound 13]	4.12	61.74%	83.9%	141	200	negative	[x]1.42
Cc1nnc(-c2ccc3nc(-c4[nH]c5ccccc5c(=O)c4C)nn3c2)s1 [Compound 82]	> 5	96.77%	186.45%	50	50	negative	[x]0
COc1cc2c(=O)c(C)c(-c3nc4ccc(-c5ccc(OC(F)(F)F)cc5)cn4n3)[nH]c2cc1Cl [Compound 78]	–	135.74%	178.3%	–	–	–	–
Cc1c(-c2nc3ccc(N4CCC(C(F)(F)F)CC4)cn3n2)[nH]c2ccccc2c1=O [Compound 47]	–	99.34%	141.23%	–	–	–	–
Cc1c(-c2nc3ccc(-c4ccc(C(F)(F)F)s4)cn3n2)[nH]c2ccccc2c1=O [Compound 11]	2.6	62.79%	69.17%	–	–	–	–
Cc1c(-c2nc3ccc(N4CCOCC4)cn3n2)[nH]c2ccccc2c1=O [Compound 54]	5.94	–	–	–	–	–	–
C/C=C(\C=C/C1=NC(c2[nH]c3ccccc3c(=O)c2C)=NC(CC)C1)c1ccc(OC)c(OC)c1 (stereo not shown) [Compound 120]	0.697	59,83%	89,24%	–	–	–	–
Cc1c(-c2nc3ccc(-c4cccc(C(F)F)c4)cn3n2)[nH]c2ccccc2c1=O [Compound 107]	3.32	58,92%	76,98%	–	–	–	–
COc1cc2[nH]c(-c3nc4ccc(-c5ccc(OC(F)(F)F)cc5)cn4n3)c(C)c(=O)c2cc1Cl [Compound 69]	–	150.98%	165.1%	–	–	–	–
Cc1c(-c2nc3ccc(-c4ccc(OC(F)(F)F)cc4)cn3n2)[nH]c2c(F)cc(F)cc2c1=O [Compound 64]	–	109.65%	158.95%	–	–	–	–
Cc1c(-c2nc3ccc(-c4nnc(C(F)(F)F)s4)cn3n2)[nH]c2ccccc2c1=O [Compound 59]	–	107.31%	154.34%	–	–	–	–

Compound	IC50 [1] [µM]	(i) % OCR after cyt bd inhibitor [2]	(ii) % OCR after cccp [2]	IC50 [3, 4] [µM]	IC50 [3, 5] [µM]	Score [3]	Δ IC50,glu/IC50,gal [3]
Cc1c(-c2nc3ccc(-c4ccc(F)c(F)c4)cn3n2)[nH]c2ccccc2c1=O [Compound 10]	–	43.4%	63.9%	–	–	–	–
Cc1c(-c2nc3ccc(-c4nc(C(F)(F)F)nn4C)cn3n2)[nH]c2ccccc2c1=O [Compound 49]	> 50	101.3%	143.58%	–	–	–	–
Cc1c(-c2nc3ccc(-c4cn(C)nn4)cn3n2)[nH]c2ccccc2c1=O [Compound 76]	> 5	111.72%	175.05%	–	–	–	–
CNC(=O)c1c(-c2nc3ccc(-c4ccc(OC(F)(F)F)cc4)cn3n2)[nH]c2ccccc2c1=O [Compound 50]	–	114.33%	144.07%	86.5	100	negative	[x]1.16
Cc1c(-c2nc3ccc(-c4ccc(C(F)(F)F)c(F)c4)cn3n2)[nH]c2ccccc2c1=O [Compound 123]	4.14	50,75%	–	–	–	–	–
Cc1c(-c2cn3cc(-c4ccc(OC(F)(F)F)cc4)ccc3n2)[nH]c2ccccc2c1=O [Compound 35]	2.39	102.9%	129.2%	–	–	–	–
Cc1noc(-c2ccc3nc(-c4[nH]c5ccccc5c(=O)c4C)nn3c2)n1 [Compound 17]	> 5	98.64%	97.68%	–	–	–	–
Cc1c(-c2nc3ccc(-c4cccc(CC(F)F)c4)cn3n2)[nH]c2ccccc2c1=O [Compound 112]	1.85	31,36%	38,59%	–	–	–	–
Cc1c(-c2nc3ccc(-c4cc(F)cc(F)c4)cn3n2)[nH]c2ccccc2c1=O [Compound 88]	5.35	–	76%	–	–	–	–
Cc1c(-c2nc3ccc(-c4ccc(F)nc4)cn3n2)[nH]c2ccccc2c1=O [Compound 61]	–	108%	155.2%	–	–	–	–
Cc1c(-c2nc3ccc(-c4ccc(OC(F)(F)F)cc4)cn3n2)[nH]c2ccc(F)cc2c1=O [Compound 3]	–	28.75%	38.75%	–	–	–	–
COc1ccc(-c2ccc3nc(-c4[nH]c5ccccc5c(=O)c4C)nn3c2)cc1F [Compound 98]	1.98	54,17%	73,86%	–	–	–	–
Cc1c(-c2nc3ccc(N4CCCC(C(F)(F)F)C4)cn3n2)[nH]c2ccccc2c1=O (stereo not shown) [Compound 9]	1.31	58.71%	62.22%	–	–	–	–
Cc1c(-c2nc3ccc(-c4nc(C(F)(F)F)ns4)cn3n2)[nH]c2ccccc2c1=O [Compound 38]	4.88	95.63%	132.88%	–	–	–	–
Cc1c(-c2nc3ccc(-c4ccnn4C)cn3n2)[nH]c2ccccc2c1=O [Compound 116]	4.59	72,01%	85,87%	–	–	–	–
Cc1c(-c2nc3ccc(-c4ccc(F)cc4)cn3n2)[nH]c2ccccc2c1=O [Compound 36]	–	88.6%	130.6%	–	–	–	–
Cc1c(-c2nc3ccc(-c4ncc(C(F)(F)F)s4)cn3n2)[nH]c2ccccc2c1=O [Compound 37]	–	93.8%	132.68%	–	–	–	–
